Source: patent US10174052B2, “Quinuclidine compounds as α-7 nicotinic acetylcholine receptor ligands” (BRISTOL-MYERS SQUIBB COMPANY, priority 2014, dated 2019)
Where two headings read alike, the source gives them in different places.

Target: T1, α7 nicotinic ACh receptor ion channel expressed in mammalian HEK 293 cells (Rattus norvegicus, UniProt Q05941)
T1 construct: expressed in transfected cells
Assay: Ca2+-sensitive fluorescence-based assay for α7 nicotinic acetylcholine receptor channel function (FLIPR), agonist activity
Type: cell-based
Description: II) A Ca^2+-Sensitive, Fluorescence-Based Assay α-7 for Nicotinic Acetylcholine Receptor Channel Function in Mammalian Cells (“FLIPR”).
Lead compounds are evaluated for agonist activity at the α7 nicotinic ACh receptor ion channel expressed in mammalian HEK 293 cells. Agonist potency and efficacy values are determined from kinetic fluorescence Ca^2+ influx measurements made using a 384 well FLIPR (Fluorescence Image Plate Reader). The utility of fluorescent indicators for measuring changes in intracellular divalent cation concentrations, particularly Ca^2+, for drug discovery endeavors is well documented (Rudiger, R., et al., Nature Reviews, 2003, 4:579-586; Gonzalez J. E., et al., Receptors and Channels, 2002, 8:283-295). In this assay, channel expressing HEK cell lines seeded in 384 well assay plates are loaded with a membrane permeant fluorescent Ca^2+ indicator dye, whose 510 nm green emission signal increases in response to elevation of intracellular Ca^2+ concentration. The basal fluorescence from the cells is monitored in real time, followed by the acute addition of test compounds. If the compound is an agonist at any of the non-selective cation channels, the latter open and allow the movement of extracellular Ca^2+ ions into the cell cytoplasm, where they bind to the Ca^2+ indicator dye, and produce an increase in fluorescence output signal, which is detected by a cooled CCD imaging camera.
Reagents: The acetomethoxy (AM) ester of the Ca^2+ indicator dye Fluo-4 was obtained from InVitrogen, (Carlsbad, Calif.). Acetylcholine and all buffer constituents were purchased from Sigma Chemical Company, St. Louis, Mo. G418 and Minimal Essential Medium were purchased from InVitrogen Life Technologies, Carlsbad, Calif. Fetal bovine serum was purchased from (InVitrogen, Carlsbad, Calif.).
HEK-293 cells were grown in Minimal Essential Medium containing 10% (v/v) fetal bovine serum at 37° C. in a 5% CO2 incubator. HEK-293 cells stably expressing the ion channels were grown in the same medium with the addition of 500 μg/ml G418.
HEK-293 cells expressing the ion channels of interest were plated in 384 well, black-walled, clear-bottomed, poly-D-lysine coated plates at a density of ˜20,000 cells/well in 20 μl of Minimal Essential Medium containing 10% (v/v) fetal bovine serum and incubated for 2 days at 29° C. in a 5% CO2 incubator. Prior to assay, cells were loaded with the Fluo-4 AM ester. Cell loading was accomplished by removing the culture medium and replacing it with 30 μl/well of the AM ester of the dye (5 μM) mixed with Hanks Balanced Salt Solution (#14175-095) containing 20 mM HEPES, 2.5 mM probenecid, 0.5 mM CaCl2, 1 mM MgCl2 and 10 μM atropine. Dye loading was allowed to proceed for 90 minutes at room temperature at which time the dye loading solution was removed and replaced with 40 μl/well of Hanks buffer. Cells loaded with dye were loaded onto a FLIPR384 (Molecular Devices, Sunnyvale, Calif.). Fluo-4 dye was excited using the 488 nm line of an argon laser. Emission was filtered using a 540+/−30 nm bandpass filter. For evaluation of the effects of test compounds using the Ca^2+ flux assay, compounds to be tested were provided in assay ready plates. For nicotinic receptor ion channel expressing cells, the assay was initiated by the addition of 20 μl/well of Hanks buffer containing test compounds. For all assays, data were collected at 1 Hz for 10 seconds (baseline), at which time the compound containing stimulus buffers are added, and further measurements collected at 0.33 Hz for 3 min.
The statistical robustness of the nicotinic receptor Ca^2+ flux assays is determined from blanks and totals wells. The totals wells define maximal channel activation for each compound test plate (Maximum efficacious dose of acetylcholine), and the blanks wells which contain matched DMSO only, define zero channel activation. […]

[1] = FLIPR α7 (EC50, nM), HEK 293 cells, Ca2+ flux, agonist potency
[2] = FLIPR α7 activity rating (EC50, nM), HEK 293 cells, Ca2+ flux, class rating of EC50

T1 sequence (Q05941 23-502): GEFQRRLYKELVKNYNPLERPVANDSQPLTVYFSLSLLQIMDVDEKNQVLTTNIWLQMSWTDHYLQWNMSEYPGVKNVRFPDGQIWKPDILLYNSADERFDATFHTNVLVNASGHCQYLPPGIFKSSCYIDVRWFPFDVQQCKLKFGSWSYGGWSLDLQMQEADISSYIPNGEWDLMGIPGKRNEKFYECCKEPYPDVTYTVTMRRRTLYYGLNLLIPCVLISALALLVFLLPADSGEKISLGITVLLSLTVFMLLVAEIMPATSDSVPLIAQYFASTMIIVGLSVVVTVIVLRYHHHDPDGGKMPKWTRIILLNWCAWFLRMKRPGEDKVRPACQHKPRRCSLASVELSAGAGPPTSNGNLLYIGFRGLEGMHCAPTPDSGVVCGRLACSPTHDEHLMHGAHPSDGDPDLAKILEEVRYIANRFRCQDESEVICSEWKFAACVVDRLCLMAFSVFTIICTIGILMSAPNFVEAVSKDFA

SMILES	EC50 [1] [nM]	EC50 [2] [nM]	EC50 [nM]
Brc1nc2n(c1Br)C[C@@]1(CN3CCC1CC3)O2 (single isomer, unassigned) [Example 1b]	19.6	< 100	
c1cncc(-c2ccc3c(c2)nc2n3C[C@@]3(CN4CCC3CC4)O2)c1 (single isomer, unassigned) [Example 13b]	634	100 to 1000	
Cc1nc2c(cc1Br)nc1n2CC2(CN3CCC2CC3)O1 (racemic) [Example 18, 7-Bromo-6-methyl-3H-1′-azaspiro[oxazolo[2′,3′:2,3]imidazo[4,5-b]pyridine-2,3′-bicyclo[2.2.2]octane]]	967	100 to 1000	
FC(F)(F)c1ccc2c(c1)nc1n2C[C@@]2(CN3CCC2CC3)O1 (single isomer, unassigned) [Example 8a]	4.7	< 100	
Cc1cccc2c1nc1n2C[C@@]2(CN3CCC2CC3)O1 (single isomer, unassigned) [Example 10b]	9.1	< 100	
Clc1cccc2c1nc1n2C[C@]2(CN3CCC2CC3)O1 (single isomer, unassigned) [Example 9a]	12100	1000 to 100000	
Clc1nc2n(n1)CC1(CN3CCC1CC3)O2 (racemic) [Example 16, 2-Chloro-6H-1′-azaspiro[oxazolo[3,2-b][1,2,4]triazole-5,3′-bicyclo[2.2.2]octane]]	174	100 to 1000	
COc1ccc2c(c1)nc1n2C[C@@]2(CN3CCC2CC3)O1 (single isomer, unassigned) [Example 6b]	10.3	< 100	
Brc1cnc2c(c1)nc1n2CC2(CN3CCC2CC3)O1 (racemic) [Example 19, 7-Bromo-3H-1′-azaspiro[oxazolo[2′,3′:2,3]imidazo[4,5-b]pyridine-2,3′-bicyclo[2.2.2]octane]]	49	< 100	
FC(F)(F)c1cccc2c1nc1n2C[C@@]2(CN3CCC2CC3)O1 (single isomer, unassigned) [Example 11b]	22	< 100	
Cc1nc2n(c1Br)CC1(CN3CCC1CC3)O2 (racemic) [Example 3a, 5-Bromo-6-methyl-3H-1′-azaspiro[imidazo[2,1-b]oxazole-2,3′-bicyclo[2.2.2]octane]]	36.1	< 100	
Cc1c(Br)nc2n1CC1(CN3CCC1CC3)O2 (racemic) [Example 3b, 6-Bromo-5-methyl-3H-1′-azaspiro[imidazo[2,1-b]oxazole-2,3′-bicyclo[2.2.2]octane]]	71.4	< 100	
FC(F)(F)c1cccc2c1nc1n2C[C@]2(CN3CCC2CC3)O1 (single isomer, unassigned) [Example 11a]	32500	1000 to 100000	
c1ccc(-c2nc3n(n2)C[C@@]2(CN4CCC2CC4)O3)cc1 [Example 14b, (R)-2-Phenyl-6H-1′-azaspiro[oxazolo[3,2-b][1,2,4]triazole-5,3′-bicyclo[2.2.2]octane]]	4.1	< 100	
COc1ccc(-c2cccc3c2nc2n3C[C@]3(CN4CCC3CC4)O2)cc1 (single isomer, unassigned) [Example 12a]	> 100000	> 1e+06	
Cc1ccc2nc3n(c2c1)C[C@@]1(CN2CCC1CC2)O3 (single isomer, unassigned) [Example 7a]	35	< 100	
COc1ccc2c(c1)nc1n2C[C@]2(CN3CCC2CC3)O1 (single isomer, unassigned) [Example 6a]	1430	1000 to 100000	
Clc1cccc2nc3n(c12)C[C@]1(CN2CCC1CC2)O3 (single isomer, unassigned) [Example 9d]	3950	1000 to 100000	
Brc1nc2n(n1)CC1(CN3CCC1CC3)O2 (racemic) [Example 15, 2-Bromo-6H-1′-azaspiro[oxazolo[3,2-b][1,2,4]triazole-5,3′-bicyclo[2.2.2]octane]]	362	100 to 1000	

SMILES	EC50 [1] [nM]	EC50 [2] [nM]	EC50 [nM]
c1nc2n(n1)CC1(CN3CCC1CC3)O2 (racemic) [Example 17, 6H-1′-Azaspiro[oxazolo[3,2-b][1,2,4]triazole-5,3′-bicyclo[2.2.2]octane]]	321	100 to 1000	
c1ccc2c(c1)nc1n2C[C@]2(CN3CCC2CC3)O1 (single isomer, unassigned) [Example 4b]	6660	1000 to 100000	
Clc1cccc2nc3n(c12)C[C@@]1(CN2CCC1CC2)O3 (single isomer, unassigned) [Example 9c]	347	100 to 1000	
FC(F)(F)c1ccc2nc3n(c2c1)C[C@@]1(CN2CCC1CC2)O3 (single isomer, unassigned) [Example 8b]		1000 to 100000	7190
Clc1cccc2c1nc1n2C[C@@]2(CN3CCC2CC3)O1 (single isomer, unassigned) [Example 9b]	24.6	< 100	
c1ccc(-c2nc3n(n2)C[C@]2(CN4CCC2CC4)O3)cc1 [Example 14a, (S)-2-Phenyl-6H-1′-azaspiro[oxazolo[3,2-b][1,2,4]triazole-5,3′-bicyclo[2.2.2]octane]]	437	100 to 1000	
COc1ccc(-c2cccc3c2nc2n3C[C@@]3(CN4CCC3CC4)O2)cc1 (single isomer, unassigned) [Example 12b]	28	< 100	
c1ccc2c(c1)nc1n2C[C@@]2(CN3CCC2CC3)O1 (single isomer, unassigned) [Example 4a]	13.6	< 100	
Clc1nc2n(c1Cl)C[C@@]1(CN3CCC1CC3)O2 [Example 2b, (R)-5,6-Dichloro-3H-1′-azaspiro[imidazo[2,1-b]oxazole-2,3′-bicyclo[2.2.2]octane]]	14.2	< 100	
FC(F)(F)c1ccc2nc3n(c2c1)C[C@]1(CN2CCC1CC2)O3 (single isomer, unassigned) [Example 8c]		> 1e+06	> 100000
c1cncc(-c2ccc3c(c2)nc2n3C[C@]3(CN4CCC3CC4)O2)c1 (single isomer, unassigned) [Example 13a]	2990	1000 to 100000	
Clc1nc2n(c1Cl)C[C@]1(CN3CCC1CC3)O2 [Example 2a, (S)-5,6-Dichloro-3H-1′-azaspiro[imidazo[2,1-b]oxazole-2,3′-bicyclo[2.2.2]octane]]	1500	1000 to 100000	
Cc1ccc2c(c1)nc1n2C[C@@]2(CN3CCC2CC3)O1 (single isomer, unassigned) [Example 7b]	5.1	< 100	
FC(F)(F)c1ccc2c(c1)nc1n2C[C@]2(CN3CCC2CC3)O1 (single isomer, unassigned) [Example 8d]	1330	1000 to 100000	
Brc1nc2n(c1Br)C[C@]1(CN3CCC1CC3)O2 (single isomer, unassigned) [Example 1a]	5690	1000 to 100000	
Cc1cc2nc3n(c2cc1C)C[C@]1(CN2CCC1CC2)O3 (single isomer, unassigned) [Example 5b]	> 100000	> 1e+06	
c1ccc(-c2cn3c(n2)O[C@@]2(CN4CCC2CC4)C3)cc1 [Example 21a, (S)-6-Phenyl-3H-1′-azaspiro[imidazo[2,1-b]oxazole-2,3′-bicyclo[2.2.2]octane]]	10	< 100	
Clc1cnc2c(c1)nc1n2CC2(CN3CCC2CC3)O1 (racemic) [Example 20, 7-Chloro-3H-1′-azaspiro[oxazolo[2′,3′:2,3]imidazo[4,5-b]pyridine-2,3′-bicyclo[2.2.2]octane]]	66	< 100	
Cc1cccc2c1nc1n2C[C@]2(CN3CCC2CC3)O1 (single isomer, unassigned) [Example 10a]	263	100 to 1000	
